Experimental findings from ChEMBL document CHEMBL2073867, “cDNA cloning and inducible expression of human multidrug resistance associated protein 3 (MRP3)” (FEBS Lett, 1998) are described below.

For data set [1], the target named is Multidrug resistance associated protein (Homo sapiens) (UniProt Q96QA9). Put plainly: (§1) TP_TRANSPORTER: Northern blot from HepG2 cells. The class given is functional, cell-based.
The target of data set [2] is Multidrug resistance-associated protein 1 (Homo sapiens, UniProt P33527). The data set is described as §1. The data set is classed as functional, cell-based.
Chain of Multidrug resistance-associated protein 1 (P33527 whole entry): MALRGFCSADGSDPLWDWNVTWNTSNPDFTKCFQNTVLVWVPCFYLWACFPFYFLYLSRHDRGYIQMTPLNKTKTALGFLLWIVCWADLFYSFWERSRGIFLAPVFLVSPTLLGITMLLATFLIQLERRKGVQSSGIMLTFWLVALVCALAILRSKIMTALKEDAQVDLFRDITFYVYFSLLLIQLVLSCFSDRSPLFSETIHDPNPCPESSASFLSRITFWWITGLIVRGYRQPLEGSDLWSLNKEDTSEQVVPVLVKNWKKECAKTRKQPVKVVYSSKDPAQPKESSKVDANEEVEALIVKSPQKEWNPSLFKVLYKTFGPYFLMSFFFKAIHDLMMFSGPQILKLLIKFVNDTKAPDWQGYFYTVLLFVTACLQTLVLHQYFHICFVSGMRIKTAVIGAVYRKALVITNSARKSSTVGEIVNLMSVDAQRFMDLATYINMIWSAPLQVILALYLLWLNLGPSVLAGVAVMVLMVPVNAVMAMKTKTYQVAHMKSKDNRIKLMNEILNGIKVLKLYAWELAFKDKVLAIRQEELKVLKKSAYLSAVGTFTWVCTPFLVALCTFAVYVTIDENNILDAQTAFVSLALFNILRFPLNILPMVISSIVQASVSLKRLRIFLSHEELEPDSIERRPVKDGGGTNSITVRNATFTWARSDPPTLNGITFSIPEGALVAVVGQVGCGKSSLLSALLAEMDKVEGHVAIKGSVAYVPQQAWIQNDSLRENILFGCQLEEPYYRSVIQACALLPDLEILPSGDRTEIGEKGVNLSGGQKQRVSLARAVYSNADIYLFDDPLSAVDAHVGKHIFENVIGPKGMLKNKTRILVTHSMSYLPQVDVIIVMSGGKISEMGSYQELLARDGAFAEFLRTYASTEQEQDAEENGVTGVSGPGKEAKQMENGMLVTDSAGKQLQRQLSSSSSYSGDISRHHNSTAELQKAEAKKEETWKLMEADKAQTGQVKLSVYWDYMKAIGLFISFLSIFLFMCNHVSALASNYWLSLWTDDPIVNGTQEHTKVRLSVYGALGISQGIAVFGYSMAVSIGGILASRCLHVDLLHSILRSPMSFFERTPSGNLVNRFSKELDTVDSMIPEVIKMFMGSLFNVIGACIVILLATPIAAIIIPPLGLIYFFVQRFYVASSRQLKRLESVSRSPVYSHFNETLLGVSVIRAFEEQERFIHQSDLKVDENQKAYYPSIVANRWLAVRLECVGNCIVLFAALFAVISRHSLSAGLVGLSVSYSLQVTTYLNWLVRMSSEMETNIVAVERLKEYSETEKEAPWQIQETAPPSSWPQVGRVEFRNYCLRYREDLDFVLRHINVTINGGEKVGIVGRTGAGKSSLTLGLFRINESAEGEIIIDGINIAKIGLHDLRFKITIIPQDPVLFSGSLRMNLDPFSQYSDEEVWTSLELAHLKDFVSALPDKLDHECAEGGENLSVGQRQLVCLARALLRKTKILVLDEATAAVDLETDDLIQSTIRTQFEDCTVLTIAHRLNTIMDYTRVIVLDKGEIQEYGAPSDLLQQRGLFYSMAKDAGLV

Chain of Multidrug resistance associated protein (Homo sapiens) (Q96QA9 as listed by the source): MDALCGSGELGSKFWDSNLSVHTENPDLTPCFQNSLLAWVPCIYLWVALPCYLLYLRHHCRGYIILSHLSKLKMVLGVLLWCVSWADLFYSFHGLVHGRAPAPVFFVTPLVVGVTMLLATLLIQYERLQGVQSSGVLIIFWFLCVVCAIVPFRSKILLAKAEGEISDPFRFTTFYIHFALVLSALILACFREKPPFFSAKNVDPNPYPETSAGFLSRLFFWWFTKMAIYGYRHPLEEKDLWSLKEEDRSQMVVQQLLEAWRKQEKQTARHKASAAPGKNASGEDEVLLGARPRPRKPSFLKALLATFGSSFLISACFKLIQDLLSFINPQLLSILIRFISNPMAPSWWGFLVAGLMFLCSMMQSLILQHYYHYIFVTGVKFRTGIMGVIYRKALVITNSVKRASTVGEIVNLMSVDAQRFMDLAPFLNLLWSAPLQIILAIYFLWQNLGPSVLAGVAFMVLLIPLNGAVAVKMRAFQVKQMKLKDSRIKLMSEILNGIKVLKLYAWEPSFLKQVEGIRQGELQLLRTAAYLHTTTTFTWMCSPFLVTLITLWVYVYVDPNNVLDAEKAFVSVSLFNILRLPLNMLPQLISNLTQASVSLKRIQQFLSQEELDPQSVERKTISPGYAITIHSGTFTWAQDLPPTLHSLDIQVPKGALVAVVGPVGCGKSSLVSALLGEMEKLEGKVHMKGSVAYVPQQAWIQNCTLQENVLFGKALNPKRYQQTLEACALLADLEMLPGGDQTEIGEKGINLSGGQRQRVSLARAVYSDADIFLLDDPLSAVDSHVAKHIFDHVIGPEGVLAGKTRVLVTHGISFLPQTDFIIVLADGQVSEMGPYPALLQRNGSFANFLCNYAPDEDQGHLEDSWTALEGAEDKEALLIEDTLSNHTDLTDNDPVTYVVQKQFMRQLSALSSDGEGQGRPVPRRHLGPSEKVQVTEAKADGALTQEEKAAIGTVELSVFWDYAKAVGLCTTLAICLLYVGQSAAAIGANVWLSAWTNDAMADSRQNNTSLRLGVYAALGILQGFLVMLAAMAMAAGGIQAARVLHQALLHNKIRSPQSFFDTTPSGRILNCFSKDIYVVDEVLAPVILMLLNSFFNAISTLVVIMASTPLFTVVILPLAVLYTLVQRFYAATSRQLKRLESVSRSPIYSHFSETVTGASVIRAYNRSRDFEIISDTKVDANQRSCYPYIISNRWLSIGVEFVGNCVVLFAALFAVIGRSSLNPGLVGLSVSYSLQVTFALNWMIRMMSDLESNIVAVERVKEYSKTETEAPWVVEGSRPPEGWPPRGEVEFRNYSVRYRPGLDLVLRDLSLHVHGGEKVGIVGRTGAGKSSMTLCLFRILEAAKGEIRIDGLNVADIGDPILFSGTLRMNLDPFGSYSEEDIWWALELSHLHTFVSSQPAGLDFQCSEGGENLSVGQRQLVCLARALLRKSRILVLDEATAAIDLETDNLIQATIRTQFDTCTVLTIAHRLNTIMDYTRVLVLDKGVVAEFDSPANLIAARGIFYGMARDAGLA

As to `CCC1(c2ccccc2)C(=O)NC(=O)NC1=O` [PHENOBARBITAL], the Activity result in data set [1] and in data set [2] was “inducer [+]” in each case.
